Values quoted from earlier work in patent US6602521B1, “Multiplex drug delivery system suitable for oral administration” (Impax Pharmaceuticals, Inc., priority 1998, dated 2003).

## O=[N+]([O-])O[C@@H]1CO[C@H]2[C@@H]1OC[C@@H]2O [Isosorbide mononitrate, 1,4:3,6-dihydro-D-glucitrol 5-nitrate]
Gastrointestinal tract
  absorption from the gastrointestinal tract: rapidly and completely absorbed
Healthy young adults vs patients with various degrees of renal, hepatic, or cardiac dysfunction
  rate of clearance: the same
In humans
  first pass metabolism in the liver: not subject to first pass metabolism
In vivo
  overall elimination half-life: about 6 hours
